Experimental data: patent US6939990B2, “Derivatives of dicarboxylic acid having pharmaceutical properties” (Bayer Aktiengesellschaft, priority 2001, dated 2005)
Structures can show the parent of a compound that is named as a salt.

Assays:
arteria saphena rings = assay: Vasorelaxant effect in vitro (phenylephrine-contracted arteria saphena rings); format: cell-based, Rabbits; details: Oryctolagus cuniculus; rabbit arteria saphena rings, contractions generated by phenylephrine, 0.1% DMSO; read-out: IC50, concentration necessary to reduce the height of the contraction of the control value by 50%
Procedure: Vasorelaxant Effect In Vitro
Rabbits are anesthetized or killed by intravenous injection of thiopental sodium (about 50 mg/kg) and exsanguinated. The arteria saphena is removed and divided into rings 3 mm wide. The individual rings are in each case mounted on a pair of hooks of triangular shape, open at the end and made of special wire (Remanium®) having a diameter of 0.3 mm. Under pretension, each ring is introduced into a 5 ml organ bath containing carbogen-gassed Krebs-Henseleit solution at 37° C. with the following composition (mM): NaCl: 119; KCl: 4.8; CaCl2×2H2O: 1; MgSO4×7H2O: 1.4; KH2PO4: 1.2; NaHCO3: 25; glucose: 10; bovine serum albumin: 0.001%. The force of contraction is detected with Statham UC2 cells, amplified and digitized via A/D converters (DAS-1802 HC, Keithley Instruments, Munich) and recorded in parallel on chart recorders. Contractions are generated by adding phenylephrine.
After several (generally 4) control cycles, the substance to be investigated is added in each further run in increasing dosage in each case, and the height of the contraction reached under the influence of the test substance is compared with the height of the contraction reached in the last preceding run. The concentration necessary to reduce the height of the control value by 50% (IC50) is calculated from this. The standard application volume is 5 μl. The DMSO content in the bath solution corresponds to 0.1%.

Structure (SMILES) | IC50 (arteria saphena rings) [nM] | melting point [°C]
O=C(O)CCCCN(Cc1ccc(C(=O)O)cc1)Cc1cccc(Oc2ccc(-c3ccc(C(F)(F)F)cc3)cc2)c1 [Example 2] | 55 | –
O=C(O)CCCCN(Cc1ccc(C(=O)O)cc1)Cc1cccc(Oc2ccc(C3CCCCC3)cc2)c1 [Example 3, 4-({(4-Carboxybutyl)[3-(4-cyclohexylphenoxy)benzyl]amino}methyl)-benzoic acid hydrochloride] | 36 | –
O=C(O)CCCCN(CCc1ccccc1OC(F)(F)c1ccc(-c2ccc(C(F)(F)F)cc2)cc1)Cc1ccc(C(=O)O)cc1 [Example 6, 4-({(4-Carboxybutyl)[2-(2-{difluoro[4′-(trifluoromethyl)-1,1′-biphenyl-4-yl]methoxy}phenyl)ethyl]amino}methyl)benzoic acid] | 0.041 | –
O=C(O)CCCCN(CCc1cc(F)ccc1COc1ccc(C2CCCCC2)cc1)Cc1ccc(C(=O)O)cc1 [Example 12, 4-{[(4-Carboxybutyl)(2-{2-[(4-cyclohexylphenoxy)methyl]-5-fluorophenyl}ethyl)amino]methyl}benzoic acid] | 0.4 | > 250
O=C(O)CCCCN(CCc1cc(F)ccc1COc1ccc(-c2ccc(C(F)(F)F)cc2)cc1)Cc1ccc(C(=O)O)cc1 [Example 17] | 0.26 | –
